In patent US11180487B2, “Substituted cyanoindoline derivatives as NIK inhibitors” (Janssen Pharmaceutica NV, priority 2016, dated 2021):
Read-outs that look alike come from different tables or passages of the source.

Experiments:
[1] = test system: KMS12-BM (NIK WT) multiple myeloma cells; assay: Antiproliferative activity on KMS12-BM multiple myeloma cells (CellTiter-Glo, 96 hr), Biological Assay C; format: cell-based, human; conditions: averaged values, read-out: KMS-12 Proliferation inhibition (IC50 (nM))
Method: (§1) Determination of Antiproliferative Activity on JJN-3 (NIK Translocated) and KMS12-BM (NIK WT) Multiple Myeloma Cells
(§2) All compounds tested were dissolved in DMSO and further dilutions were made in culture medium. Final DMSO concentration was 0.3% (v/v) in cell proliferation assays. Viability was assessed using CellTiter-Glo cell viability assay kit (Promega). The human JJN-3 and KMS12-BM cells (DSMZ) were cultured in RPMI 1640 medium supplemented with 2 mM L-glutamine, and 10% fetal calf serum (PAA). Cells were routinely kept as suspension cells at 37° C. in a humidified 5% CO2 atmosphere. Cells were passaged at a seeding density of 0.2×10^6/ml twice a week. Cells were seeded in black tissue culture treated 96-well plates (Perkin Elmer). Densities used for plating ranged from 15000 (JJN3) to 20000 (KMS12BM) cells per well in a total volume of 135 μl medium. Drugs and/or solvents were added (15 μl) to a final volume of 150 μl. Following 96 hr of treatment, plates were removed from the incubator and allowed to equilibrate to room temperature for approx 10 min. 75 μl CellTiter-Glo reagent was added to each well that was then covered (Perkin Elmer Topseal) and shaken on plate shaker for 10 min. Luminescence was measured on a HTS Topcount (Perkin Elmer).
(§3) Within an experiment, the results for each treatment were the mean of 2 replicate wells. For initial screening purposes, compounds were tested using a 9 point dilution curve (serial 1:3 dilutions). For each experiment, controls (containing no drug) and a blank incubation (containing cells read at the time of compound addition) were run in parallel. The blank value was subtracted from all control and sample values. For each sample, the mean value for cell growth (in relative light units) was expressed as a percentage of the mean value for cell growth of the control.

[2] = test system: JJN-3 (NIK translocated) multiple myeloma cells; assay: Antiproliferative activity on JJN-3 multiple myeloma cells (CellTiter-Glo, 96 hr), Biological Assay C; format: cell-based, human; conditions: JJN-3 (NIK translocated) cells, averaged values, read-out: JJN-3 Proliferation inhibition (IC50 (nM))
Method: as §1, §2, §3

[3] = target: recombinant human NF-kappaB-inducing kinase (NIK/MAP3K14) (Homo sapiens, UniProt Q99558); assay: Inhibition of auto-phosphorylation of recombinant human NIK/MAP3K14 activity (AlphaScreen), Biological Assay A; format: biochemical; conditions: averaged values over all measurements on all batches
Method: Inhibition of Auto-Phosphorylation of Recombinant Human NF-kappaB-Inducing Kinase (NIK/MAP3K14) Activity (AlphaScreen®)
NIK/MAP3K14 auto-phosphorylation activity was measured using the AlphaScreen® (αscreen) format (Perkin Elmer). All compounds tested were dissolved in dimethyl sulfoxide (DMSO) and further dilutions were made in assay buffer. Final DMSO concentration was 1% (v/v) in assays. Assay buffer was 50 mM Tris pH 7.5 containing 1 mM EGTA (ethylene glycol tetraacetic acid), 1 mM DTT (dithiothreitol), 0.1 mM Na3VO4, 5 mM MgCl2, 0.01% Tween® 20. Assays were carried out in 384 well Alphaplates (Perkin Elmer). Incubations consisted of compound, 25 microM Adenosine-5′-triphosphate (ATP), and 0.2 nM NIK/MAP3K14. Incubations were initiated by addition of GST-tagged NIK/MAP3K14 enzyme, carried out for 1 h at 25° C. and terminated by addition of stop buffer containing anti-phospho-IKK Ser176/180 antibody. Protein A Acceptor and Glutathione-Donor beads were added before reading using an EnVision® Multilabel Plate Reader (Perkin Elmer). Signal obtained in the wells containing blank samples was subtracted from all other wells and IC50's were determined by fitting a sigmoidal curve to % inhibition of control versus Log10 compound concentration.

Chain of recombinant human NF-kappaB-inducing kinase (NIK/MAP3K14) (Q99558 whole entry): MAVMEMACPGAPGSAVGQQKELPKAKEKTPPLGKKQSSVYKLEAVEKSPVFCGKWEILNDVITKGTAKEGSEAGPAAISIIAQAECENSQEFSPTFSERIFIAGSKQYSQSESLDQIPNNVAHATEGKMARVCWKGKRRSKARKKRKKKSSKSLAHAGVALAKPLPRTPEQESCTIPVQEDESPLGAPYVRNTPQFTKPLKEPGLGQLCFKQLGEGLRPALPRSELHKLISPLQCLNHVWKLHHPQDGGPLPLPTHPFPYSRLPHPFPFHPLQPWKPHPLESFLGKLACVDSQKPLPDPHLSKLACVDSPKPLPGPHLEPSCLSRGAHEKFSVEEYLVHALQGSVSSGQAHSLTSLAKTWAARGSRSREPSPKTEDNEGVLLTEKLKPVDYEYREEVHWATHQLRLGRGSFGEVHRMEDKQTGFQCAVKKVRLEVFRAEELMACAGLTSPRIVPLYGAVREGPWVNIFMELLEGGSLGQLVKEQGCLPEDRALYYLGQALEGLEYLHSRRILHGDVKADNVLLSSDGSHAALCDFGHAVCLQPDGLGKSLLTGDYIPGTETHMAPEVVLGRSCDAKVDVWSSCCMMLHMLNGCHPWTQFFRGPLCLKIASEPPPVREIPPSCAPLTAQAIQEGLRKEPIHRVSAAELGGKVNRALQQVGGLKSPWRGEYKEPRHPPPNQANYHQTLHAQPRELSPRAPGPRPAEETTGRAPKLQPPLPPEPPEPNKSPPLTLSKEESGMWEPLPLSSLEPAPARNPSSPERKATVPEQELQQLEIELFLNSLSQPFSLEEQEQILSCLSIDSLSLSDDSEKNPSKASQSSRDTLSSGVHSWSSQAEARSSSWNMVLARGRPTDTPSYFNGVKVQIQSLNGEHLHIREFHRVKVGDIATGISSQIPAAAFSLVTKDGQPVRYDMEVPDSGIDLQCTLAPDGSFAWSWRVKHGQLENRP

| Compound | IC50 ([1]; Homo sapiens, KMS-12-BM, 96 h) [nM] | IC50 ([2]; Homo sapiens, JJN-3, 96 h) [nM] | melting point [°C] | IC50 [3] [nM] | IC50 [1] [nM] | IC50 [2] [nM] |
| --- | --- | --- | --- | --- | --- | --- |
| CN1CCCC(Oc2ccc(Cl)cc2Nc2nccc(-c3cc(C#N)c4c(c3)C(C)(CO)CN4)n2)C1 (mixture of isomers) [Compound 39] | 2340 | 87 | 173 | 7.4 | – | – |
| Cc1ccc(C#N)cc1Nc1nccc(-c2cc(C#N)c3c(c2)C(C)(CO)CN3)n1 (stereo not drawn) [Compound 26] | > 10000 | 255 | 195 | 3.7 | – | – |
| COc1ccc(C(F)(F)F)cc1Nc1nccc(-c2cc(C#N)c3c(c2)C(C)(CO)CN3)n1 (stereo not drawn) [Compound 30] | > 10000 | > 10000 | 224 | 51.3 | – | – |
| CC1(CO)CNc2c(C#N)cc(-c3ccnc(Nc4cc(C#N)ccc4Cl)n3)cc21 (stereo not drawn) [Compound 32] | > 10000 | 170 | 274 | 4 | – | – |
| COc1ccc(Cl)cc1Nc1nccc(-c2cc(C#N)c3c(c2)C(C)(CO)CN3)n1 (stereo not drawn) [Compound 33] | > 10000 | 85 | 239 | 11.2 | – | – |
| CC1(CO)CNc2c(C#N)cc(-c3ccnc(Nc4ccc(C5CCOCC5)c(C(F)(F)F)c4)n3)cc21 (stereo not drawn) [Compound 36] | 6460 | 51 | 263 | 75.9 | – | – |
| COCCOc1cc(C2CCOCC2)ccc1Nc1nccc(-c2cc(C#N)c3c(c2)[C@@](C)(CO)CN3)n1 [Compound 61] | > 10000 | 186 | – | 11 | – | – |
| C[C@]1(CO)CNc2c(C#N)cc(-c3ccnc(Nc4ccccc4P(C)(C)=O)n3)cc21 [Compound 62] | – | – | 228 | 912 | – | – |
| CC(C)Oc1ccc(C(F)(F)F)cc1Nc1nccc(-c2cc(C#N)c3c(c2)C(C)(CO)CN3)n1 (stereo not drawn) [Compound 76] | > 10000 | 2340 | – | 186 | – | – |
| COCCN1CCN(c2cc(OC)c(Nc3nccc(-c4cc(C#N)c5c(c4)C(C)(C)CN5)n3)cc2Cl)CC1 [Compound 89] | > 10000 | ~100 | – | 20.9 | – | – |
| CCN1CCN(c2cc(C)c(Nc3nccc(-c4cc(C#N)c5c(c4)C(C)(C)CN5)n3)cc2Cl)CC1 [Compound 91] | > 10000 | ~107 | – | 7.2 | – | – |
| COc1cc(N2CCN(C(C)C)CC2)c(Cl)cc1Nc1nccc(-c2cc(C#N)c3c(c2)C(C)(C)CN3)n1 [Compound 93] | > 10000 | 83 | – | 11.5 | – | – |
| COCCN1CCC(c2cc(OC)c(Nc3nccc(-c4cc(C#N)c5c(c4)C(C)(C)CN5)n3)cc2C)CC1 [Compound 94] | > 10000 | 166 | – | 9.8 | – | – |
| COc1cc(OCCN2CCN(C)CC2)c(Cl)cc1Nc1nccc(-c2cc(C#N)c3c(c2)C(C)(C)CN3)n1 [Compound 95] | > 10000 | 129 | – | 9.3 | – | – |
| COc1cc(N2CCC(O)C2)c(Cl)cc1Nc1nccc(-c2cc(C#N)c3c(c2)C(C)(C)CN3)n1 (stereo not drawn) [Compound 97] | 4360 | 59 | – | 45.7 | – | – |
| COc1cc(N2CCN(C3CC3)CC2)c(Cl)cc1Nc1nccc(-c2cc(C#N)c3c(c2)C(C)(C)CN3)n1 [Compound 98] | > 10000 | 105 | – | 129 | – | – |
| COc1cc(C(=O)N2CC(O)C2)c(Cl)cc1Nc1nccc(-c2cc(C#N)c3c(c2)C(C)(C)CN3)n1 [Compound 110] | > 10000 | 193 | – | 4.2 | – | – |
| COc1cc(C(=O)NC2CCC(O)C2)c(Cl)cc1Nc1nccc(-c2cc(C#N)c3c(c2)C(C)(C)CN3)n1 (stereo not drawn) [Compound 116] | – | – | – | 6.8 | > 10000 | 162 |
| COc1cc(C(=O)N2CCCC(O)CC2)c(Cl)cc1Nc1nccc(-c2cc(C#N)c3c(c2)C(C)(C)CN3)n1 (stereo not drawn) [Compound 119] | 1380 | 28 | – | 7.1 | – | – |
| COc1cc(C(=O)N2CC3CC(C2)C3O)c(Cl)cc1Nc1nccc(-c2cc(C#N)c3c(c2)C(C)(C)CN3)n1 (stereo not drawn) [Compound 120] | > 10000 | 25 | – | 15.5 | – | – |

Further lines, results first:

| IC50 ([1]; Homo sapiens, KMS-12-BM, 96 h) [nM] | IC50 ([2]; Homo sapiens, JJN-3, 96 h) [nM] | melting point [°C] | IC50 [3] [nM] | IC50 [1] [nM] | IC50 [2] [nM] | Compound |
| --- | --- | --- | --- | --- | --- | --- |
| 437 | 525 | – | 1.6 | – | – | COc1cc(C(=O)NC2CNCC2O)c(Cl)cc1Nc1nccc(-c2cc(C#N)c3c(c2)C(C)(C)CN3)n1 (mixture of isomers) [Compound 124] |
| ~4470 | 35 | – | 4.7 | – | – | COc1cc(C(=O)N2CC[C@@H]3CNC[C@@H]32)c(Cl)cc1Nc1nccc(-c2cc(C#N)c3c(c2)C(C)(C)CN3)n1 (relative stereo) [Compound 122] |
| > 10000 | 106 | 289 | 9.2 | – | – | Cc1ccc(Cl)cc1Nc1nccc(-c2cc(C#N)c3c(c2)C(C)(CO)CN3)n1 (stereo not drawn) [Compound 27] |
| > 10000 | 166 | 210 | 17.4 | – | – | CC1(CO)CNc2c(C#N)cc(-c3ccnc(Nc4cc(Cl)ccc4Cl)n3)cc21 (stereo not drawn) [Compound 29] |
| > 10000 | 2340 | 295 | 5.3 | – | – | COc1ccc(C#N)cc1Nc1nccc(-c2cc(C#N)c3c(c2)C(C)(CO)CN3)n1 (stereo not drawn) [Compound 31] |
| > 10000 | 316 | 184 | 20.9 | – | – | COCCOc1ccc(Cl)cc1Nc1nccc(-c2cc(C#N)c3c(c2)C(C)(CO)CN3)n1 (stereo not drawn) [Compound 34] |
| 7080 | 129 | 192 | 37.2 | – | – | CC1(CO)CNc2c(C#N)cc(-c3ccnc(Nc4cc(Cl)ccc4OC4CCN(C5CC5)CC4)n3)cc21 (stereo not drawn) [Compound 35] |
| ~2460 | 126 | – | 46.8 | – | – | COC(=O)c1cc(Nc2nccc(-c3cc(C#N)c4c(c3)C(C)(CO)CN4)n2)cc(C(F)(F)F)c1 (stereo not drawn) [Compound 77] |
| > 10000 | 178 | – | 85.1 | – | – | COCc1cc(OC)c(Nc2nccc(-c3cc(C#N)c4c(c3)C(C)(C)CN4)n2)cc1Cl [Compound 88] |
| > 10000 | > 10000 | – | 219 | – | – | CC1(C)CNc2c(C#N)cc(-c3ccnc(Nc4cc(Cl)ccc4S(C)(=O)=O)n3)cc21 [Compound 90] |
| > 10000 | 389 | – | 138 | – | – | COc1cc(N2CCC(OC)CC2)c(Cl)cc1Nc1nccc(-c2cc(C#N)c3c(c2)C(C)(C)CN3)n1 [Compound 92] |
| > 10000 | ~81 | – | 9.1 | – | – | COc1cc(S(C)(=O)=O)c(F)cc1Nc1nccc(-c2cc(C#N)c3c(c2)C(C)(C)CN3)n1 [Compound 96] |
| – | 676 | 152 | 53.7 | – | – | CNCCOc1ccc(Cl)cc1Nc1nccc(-c2cc(C#N)c3c(c2)C(C)(C)CN3)n1 [Compound 109] |
| > 10000 | 166 | – | 4.9 | – | – | COc1cc(C(=O)NC2CCC(O)C2)c(Cl)cc1Nc1nccc(-c2cc(C#N)c3c(c2)C(C)(C)CN3)n1 (stereo not drawn) [Compound 115] |
| 1550 | 19 | – | 4.7 | – | – | COc1cc(C(=O)N2CC3C(CO)C3C2)c(Cl)cc1Nc1nccc(-c2cc(C#N)c3c(c2)C(C)(C)CN3)n1 (stereo not drawn) [Compound 117] |
| > 10000 | 933 | – | 25.7 | – | – | COc1cc(C(=O)NC2CC(F)(F)C2)c(Cl)cc1Nc1nccc(-c2cc(C#N)c3c(c2)C(C)(C)CN3)n1 [Compound 118] |
| – | – | 252 | 6.9 | – | – | CNC(=O)c1ccc(C)c(Nc2ncnc(-c3cc(C#N)c4c(c3)[C@@](C)(CO)CN4)n2)c1 [Compound 214] |
